In PubChem BioAssay (NCI) one finds GI50 and TGI data, which are given here for eight compounds.

SMILES strings stand for the structures.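 Following 48 hours of exposure in 96-well plates, responses at five concentrations were used to interpolate endpoints linearly. The concentration for 50% growth inhibition is given as GI50. The concentration for full growth arrest is given as TGI.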

Common to all, as to experiment: DTP human tumour cell line panel, 48 h
The subject of assay [1] is HCT-15 colon.
Assay [2] concerns CAKI-1 renal.
The subject of assay [3] is NCI-H522 lung.
Assay [4] has as its system MDA-MB-435.
The test system of assay [5] is ACHN renal.
The test system of assay [6] is A549 NSCLC.
Assay [7] concerns RXF 393 renal.
For assay [8], the system named is A498 renal.

On to `Cn1cncc1[C@@](N)(c1ccc(Cl)cc1)c1ccc2c(c1)c(-c1cccc(Cl)c1)cc(=O)n2C`, for which the GI50 (usually the concentration at which growth is held to half of that of the control) in assay [1] is 2080 nM; in assay [2] it was 3080 nM; in assay [3], 655 nM; in assay [4], 172 nM; in assay [5] it was 3050 nM; in assay [6] it was 2.05 µM. Further, the GI50 in assay [7] was 2410 nM; in assay [8], 0.887 µM. Moreover, the TGI (as a rule, the concentration giving total growth inhibition) turned out to be 11.9 µM in assay [1]; 14.7 µM in assay [2]; 5.05 µM in assay [3]; 1.93 µM in assay [4]; 14.9 µM in assay [5]; 10.2 µM in assay [6]. In addition, the TGI in assay [7] was 11.5 µM; in assay [8], 17.2 µM.

Take `COc1ccc2nc(-c3cc(-c4cc(OC)c(OC)c(OC)c4)n[nH]3)[nH]c2c1`: the GI50 in assay [1] was 2500 nM; in assay [2], 1790 nM; in assay [3], 1210 nM; in assay [4], 1490 nM; in assay [5], 2630 nM; in assay [6] it was 1.63 µM. For the same compound, the GI50 in assay [7] is 2490 nM; in assay [8] it was 2.23 µM. In addition, the TGI was found to be 10.7 µM in assay [1]; 5.64 µM in assay [2]; 3.98 µM in assay [3]; 3.11 µM in assay [4]; 10.7 µM in assay [5]; 5.25 µM in assay [6]. The TGI in assay [7] stood at 12.3 µM; in assay [8] it was 10.2 µM.

Turning to `Cc1nn(-c2nc3ccccc3s2)c(C)c1Oc1ccccc1O`, the GI50 was 762 nM in assay [1]; 10900 nM in assay [2]; 5400 nM in assay [3]; 9360 nM in assay [4]; 10100 nM in assay [5]; 6.14 µM in assay [6]. In addition, the GI50 in assay [7] was 3090 nM; in assay [8], 11.4 µM. For the same compound, the TGI in assay [1] worked out at 17.7 µM; in assay [2], 22.9 µM; in assay [3], 28.9 µM; in assay [4], 21.3 µM; in assay [5], 22.8 µM; in assay [6], 22.5 µM. Further, the TGI was 8.38 µM in assay [7] and 23.6 µM in assay [8].

As to `CC1=NN(c2ccccc2)C(=O)C1N=Nc1ccc([As](=O)(O)O)c(O)c1` (configuration not stated), the TGI in assay [1], in assay [2], in assay [3], in assay [4], in assay [5] and in assay [6] was more than 100 µM each time. Besides, the TGI in assay [7] and in assay [8] was more than 100 µM in each case.

With `CCN(CC)CCCC(C)Nc1cnc(C(=O)Nc2ccc(Cl)c3cccnc23)cn1` (configuration not stated), the GI50 in assay [1] is 2290 nM; in assay [2], 1780 nM; in assay [3] it was 2070 nM; in assay [4] it was 1810 nM; in assay [5], 1730 nM; in assay [6], 2.71 µM. Besides, the GI50 was 1640 nM in assay [7] and 5.48 µM in assay [8]. Also, the TGI in assay [1] is 6.3 µM; in assay [2] it was 4.1 µM; in assay [3] it was 4.34 µM; in assay [4], 3.43 µM; in assay [5], 3.31 µM; in assay [6] it was 11.8 µM. In addition, the TGI turned out to be 3.36 µM in assay [7] and 19.5 µM in assay [8].

On to `Oc1ccc2cc(Br)ccc2c1-c1c(O)ccc2cc(Br)ccc12`, for which the GI50 in assay [1] is 3200 nM; in assay [2], 2270 nM; in assay [3] it was 1980 nM; in assay [4], 3040 nM; in assay [5], 3020 nM; in assay [6] it was 3.78 µM. In addition, the GI50 in assay [7] is 2790 nM; in assay [8], 2.95 µM. For the same compound, the TGI in assay [1] is 12.1 µM; in assay [2] it was 8.77 µM; in assay [3] it was 4.53 µM; in assay [4] it was 11.2 µM; in assay [5], 11.3 µM; in assay [6], 13.1 µM. Moreover, the figures for the TGI in assay [7] and in assay [8] were 5.93 µM and 10.3 µM, respectively.

For `CC1=CC(=NC(=O)CBr)C=C/C1=N\S(=O)(=O)c1ccccc1`, the GI50 in assay [1] is 1990 nM; in assay [2], 3110 nM; in assay [3], 1610 nM; in assay [4], 3400 nM; in assay [5] it was 2770 nM; in assay [6] it was 13.9 µM. In addition, the GI50 in assay [7] is 1770 nM; in assay [8], 14.3 µM. In addition, the TGI in assay [1] worked out at 4.67 µM; in assay [2], 11.4 µM; in assay [3] it was 3.72 µM; in assay [4], 13.7 µM; in assay [5], 8.98 µM; in assay [6], 34.8 µM. Also, the concentration for total growth inhibition (TGI) in assay [7] came out at 3.89 µM; in assay [8], 28.2 µM.

For `Nc1nc(N)c(N=O)c(Nc2ccc(O)cc2)n1`, the TGI in assay [1] was more than 100 µM; in assay [2] it was more than 76.3 µM; in assay [3], more than 56.6 µM; in assay [4], more than 100 µM; in assay [5], more than 86.1 µM; in assay [6], more than 100 µM. In addition, the TGI in assay [7] was more than 100 µM; in assay [8], more than 85.1 µM.
